Experimental data published in patent publication US8846570B2, “Herbicidal compositions comprising 4-amino-3-chloro-5-fluoro-6-(4-chloro-2-fluoro-3-methoxyphenyl)pyridine-2-carboxylic acid or a derivative thereof and microtubule inhibiting herbicides” (Dow AgroSciences LLC, priority 2012, dated 2014).

What was measured:
Assay in all cases: In-water applied, transplanted paddy rice, greenhouse: visual weed control
Type in all cases: in vivo
[1] = system: Echinochloa crus-galli (L.) Beauv. (ECHCG); settings: 21 DAA
Procedure: (§1) Weed seeds or nutlets of the desired test plant species were planted in puddled soil (mud) prepared by mixing a shredded, non-sterilized mineral soil (50.5 percent silt, 25.5 percent clay, and 24 percent sand, with a pH of about 7.6 and an organic matter content of about 2.9 percent) and water at a 1:1 volumetric ratio. The prepared mud was dispensed in 365 mL aliquots into 16-ounce (oz.) non-perforated plastic pots with a surface area of 86.59 square centimeters (cm^2) leaving a headspace of 3 centimeters (cm) in each pot. Mud was allowed to dry overnight prior to planting or transplanting. Rice seeds were planted in Sun Gro MetroMix® 306 planting mixture, which typically has a pH of 6.0 to 6.8 and an organic matter content of about 30 percent, in plastic plug trays. Seedlings at the second or third leaf stage of growth were transplanted into 860 mL of mud contained in 32-oz. non-perforated plastic pots with a surface area of 86.59 cm^2 4 days prior to herbicide application. The paddy was created by filling the headspace of the pots with 2.5 to 3 cm of water. When required to ensure good germination and healthy plants, a fungicide treatment and/or other chemical or physical treatment was applied. The plants were grown for 4-22 days in a greenhouse with an approximate 14 h photoperiod which was maintained at about 29° C. during the day and 26° C. during the night. Nutrients were added as Osmocote® (19:6:12, N:P:K+minor nutrients) at 2 g per 16.-oz. pot and 4 g per 32-oz. pot. Water was added on a regular basis to maintain the paddy flood, and supplemental lighting was provided with overhead metal halide 1000-Watt lamps as necessary. The plants were employed for testing when they reached the first through fourth true leaf stage.
(§2) Treatments consisted of the acid or esters of 4-amino-3-chloro-5-fluoro-6-(4-chloro-2-fluoro-3-methoxy-phenyl)pyridine-2-carboxylic acid (compound A) each formulated as an SC and various herbicidal components alone and in combination. Forms of compound A were applied on an acid equivalent basis.
(§3) Treatment requirements for each compound or herbicidal component were calculated based upon the rates being tested, the concentration of active ingredient or acid equivalent in the formulation, an application volume of 2 mL per component per pot, and an application area of 86.59 cm^2 per pot.
(§4) For formulated compounds, a measured amount was placed in an individual 100 or 200 mL glass vial and was dissolved in a volume of 1.25% (v/v) Agri-Dex® crop oil concentrate to obtain application solutions.
(§5) For technical grade compounds, a weighed amount was placed in an individual 100 to 200 mL glass vial and was dissolved in a volume of acetone to obtain concentrated stock solutions. […] The concentrated stock solutions obtained were diluted with an equivalent volume of an aqueous mixture containing 2.5% (v/v) crop oil concentrate so that the final application solutions contained 1.25% (v/v) crop oil concentrate.
(§6) Applications were made by injecting, with a pipetter, appropriate amounts of the application solutions into the aqueous layer of the paddy. Control plants were treated in the same manner with the solvent blank. Applications were made so that all treated plant material received the same concentrations of acetone and crop oil concentrate.
(§7) The treated plants and control plants were placed in a greenhouse as described above and water was added as needed to maintain a paddy flood. After approximately 3 weeks the condition of the test plants as compared with that of the untreated plants was determined visually and scored on a scale of 0 to 100 percent where 0 corresponds to no injury or growth inhibition and 100 corresponds to complete kill.
(§8) Colby's equation was used to determine the herbicidal effects expected from the mixtures (Colby, S. R. 1967. Calculation of the synergistic and antagonistic response of herbicide combinations. Weeds 15:20-22.). […]

[2] = system: Echinochloa oryzoides (Ard.) Fritsch (ECHOR); settings: 21 DAA
Procedure: as §1, §2, §3, §4, §5, §6, §7, §8

[3] = system: Leptochloa chinensis (L.) Nees (LEFCH); settings: 21 DAA
Procedure: as §1, §2, §3, §4, §5, §6, §7, §8

[4] = system: Schoenoplectus Maritimes (L.) Lye (SCPMA); settings: 21 DAA
Procedure: as §1, §2, §3, §4, §5, §6, §7, §8

[5] = system: Cyperus rotundus L. (CYPRO)
Procedure: as §1, with “When required to ensure good germination and healthy plants, a fungicide treatment and/or other chemical or physical treatment was applied. The plants were grown for 4-22 days in a greenhouse with an approximate 14 h photoperiod which was maintained at about 29° C. during the day and 26° C. during the night.” left out
Forms of compound A were applied on an acid equivalent basis.
as §4, §5, §6, §7
Colby's equation was used to determine the herbicidal effects expected from the mixtures (Colby, S. R. 1967. Calculation of the synergistic and antagonistic response of herbicide combinations. Weeds 15:20-22.).
The following equation was used to calculate the expected activity of mixtures containing two active ingredients, A and B: Expected=A+B−(A×B/100)

## COc1c(Cl)ccc(-c2nc(C(=O)O)c(Cl)c(N)c2F)c1F [Compound A Acid, 4-amino-3-chloro-6-(4-chloro-2-fluoro-3-methoxyphenyl)-5-fluoropyridine-2-carboxylic acid]
[1]; 8.75 g ae/ha
  Visual Weed Control (%) Obs: 0%
[1]; 17.5 g ae/ha
  Visual Weed Control (%) Obs: 0%
[1]; 35 g ae/ha
  Visual Weed Control (%) Obs: 20%
[2]; 8.75 g ae/ha
  Visual Weed Control (%) Obs: 10%
[2]; 17.5 g ae/ha
  Visual Weed Control (%) Obs: 40%
[2]; 35 g ae/ha
  Visual Weed Control (%) Obs: 40%
[3]; 8.75 g ae/ha
  Visual Weed Control (%) Obs: 0%
[3]; 17.5 g ae/ha
  Visual Weed Control (%) Obs: 0%
[3]; 35 g ae/ha
  Visual Weed Control (%) Obs: 30%
[4]; 8.75 g ae/ha
  Visual Weed Control (%) Obs: 0%
[4]; 17.5 g ae/ha
  Visual Weed Control (%) Obs: 0%
[4]; 35 g ae/ha
  Visual Weed Control (%) Obs: 0%
[5]; 20 DAA, 10.6 g ae/ha
  Visual Weed Control (%) Obs: 10%
[5]; 20 DAA, 21.2 g ae/ha
  Visual Weed Control (%) Obs: 20%

## COc1c(Cl)ccc(-c2nc(C(=O)OCc3ccccc3)c(Cl)c(N)c2F)c1F [Compound A Benzyl Ester, benzyl ester of 4-amino-3-chloro-5-fluoro-6-(4-chloro-2-fluoro-3-methoxy-phenyl)pyridine-2-carboxylic acid]
[1]; 4.38 g ae/ha
  Visual Weed Control (%) Obs: 0%
[1]; 8.75 g ae/ha
  Visual Weed Control (%) Obs: 0%
[1]; 17.5 g ae/ha
  Visual Weed Control (%) Obs: 25%
[2]; 4.38 g ae/ha
  Visual Weed Control (%) Obs: 40%
[2]; 8.75 g ae/ha
  Visual Weed Control (%) Obs: 60%
[2]; 17.5 g ae/ha
  Visual Weed Control (%) Obs: 75%
[3]; 35 g ae/ha
  Visual Weed Control (%) Obs: 50%
[3]; 70 g ae/ha
  Visual Weed Control (%) Obs: 50%
[4]; 4.38 g ae/ha
  Visual Weed Control (%) Obs: 0%
[4]; 8.75 g ae/ha
  Visual Weed Control (%) Obs: 0%
[4]; 17.5 g ae/ha
  Visual Weed Control (%) Obs: 0%
[5]; 20 DAA, 4.38 g ae/ha
  Visual Weed Control (%) Obs: 50%
[5]; 20 DAA, 8.75 g ae/ha
  Visual Weed Control (%) Obs: 0%
[5]; 20 DAA, 17.5 g ae/ha
  Visual Weed Control (%) Obs: 90%
[5]; 21 DAA, 8.75 g ae/ha
  Visual Weed Control (%) Obs: 0%
[5]; 21 DAA, 17.5 g ae/ha
  Visual Weed Control (%) Obs: 0%

## CSC(=O)c1c(C(F)F)nc(C(F)(F)F)c(C(=O)SC)c1CC(C)C [Dithiopyr, S,S′-dimethyl-2-(difluoromethyl)-4-(2-methylpropyl)-6-(trifluoromethyl)-3,5-pyridinedicarbothioate]
[2]; 70 g ai/ha
  Visual Weed Control (%) Obs: 30%
[4]; 70 g ai/ha
  Visual Weed Control (%) Obs: 0%

## CCC(CC)Nc1c([N+](=O)[O-])cc(C)c(C)c1[N+](=O)[O-] [Pendimethalin, N-(1-ethylpropyl)-3,4-dimethyl-2,6-dinitrobenzenamine, reference compound]
[1]; 280 g ai/ha
  Visual Weed Control (%) Obs: 20%
[1]; 560 g ai/ha
  Visual Weed Control (%) Obs: 0%
[3]; 280 g ai/ha
  Visual Weed Control (%) Obs: 40%
[3]; 1120 g ai/ha
  Visual Weed Control (%) Obs: 48%
[4]; 560 g ai/ha
  Visual Weed Control (%) Obs: 0%
[5]; 21 DAA, 280 g ai/ha
  Visual Weed Control (%) Obs: 0%
[5]; 21 DAA, 560 g ai/ha
  Visual Weed Control (%) Obs: 0%
